Test results as given in patent publication US20080207650A1, “Chemical Compounds 636” (priority 2007, published 2008).

Molecular target: recombinant Human Phosphodiesterase B2 (PDE4B2) (Homo sapiens, UniProt Q07343)
Test: Human Phosphodiesterase B2 Radiometric Assay
Format: biochemical
Settings: SPA assay, 0.1 μg/mL recombinant PDE4B2, 8 nM [3H]cyclic AMP, preincubated 30 min at 30 C, reaction 20 minutes; read-out: PDE4B2 pIC50 (converted)
Protocol: Human Phosphodiesterase B2 Radiometric Assay
The assay uses recombinant Human Phosphodiesterase B2 (PDE4B2) produced in house (PrAZL0163), stored at −20° C. This assay is based on the observation that 5′AMP, the product of the reaction catalysed by PDE4, binds preferentially to yttrium silicate SPA beads (Amersham Biosciences, UK) compared to the substrate, cAMP. Compounds at the appropriate concentration were preincubated at 30 C for 30 min with an assay buffer containing 50 mM HEPES (pH 7.5), 8.3 mM MgCl2, 1.7 mM EGTA, 0.01% (w/v) Brij® 35 and 0.1 μg/mL recombinant PDE4B2. The reaction was started by the addition of [3H]cyclic AMP to give a final concentration of 8 nM, and was stopped 20 minutes after the addition of the substrate by the addition of yttrium silicate SPA beads containing 18 mM Zn SO4. Bound [3H]cyclic AMP was measured using a Topcount NXT (Packard Bioscience, UK). IC50 values (presented in Table I) were determined using Xlfit3 curve fitting, using model 205.

recombinant Human Phosphodiesterase B2 (PDE4B2), sequence (Q07343 1-564 isoform Q07343-2): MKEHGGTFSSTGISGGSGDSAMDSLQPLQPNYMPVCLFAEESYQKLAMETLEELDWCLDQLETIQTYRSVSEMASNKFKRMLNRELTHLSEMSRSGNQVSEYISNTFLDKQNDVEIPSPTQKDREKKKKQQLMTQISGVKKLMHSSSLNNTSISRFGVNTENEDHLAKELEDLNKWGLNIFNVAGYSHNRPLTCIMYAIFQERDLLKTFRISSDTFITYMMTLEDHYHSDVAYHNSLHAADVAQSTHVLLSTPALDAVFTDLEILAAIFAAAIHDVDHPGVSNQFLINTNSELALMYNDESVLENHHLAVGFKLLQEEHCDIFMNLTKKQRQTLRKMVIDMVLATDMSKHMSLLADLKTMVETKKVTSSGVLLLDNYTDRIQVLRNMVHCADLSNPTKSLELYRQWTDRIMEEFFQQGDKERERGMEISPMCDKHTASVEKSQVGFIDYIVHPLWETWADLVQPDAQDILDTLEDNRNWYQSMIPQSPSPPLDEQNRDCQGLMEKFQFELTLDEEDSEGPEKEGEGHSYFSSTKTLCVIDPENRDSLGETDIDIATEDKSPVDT

| IC50 | SMILES |
| --- | --- |
| 6.31 nM | NCC1CCc2nc(C(=O)N[C@H]3CC[C@@H](n4c(=O)c5cc(F)cnc5n(C5CCSCC5)c4=O)CC3)cn2C1 (stereo partly drawn) [Example 3, 6-(aminomethyl)-N-{cis-4-[6-fluoro-2,4-dioxo-1-(tetrahydro-2H-thiopyran-4-yl)-1,4-dihydropyrido[2,3-d]pyrimidin-3(2H)-yl]cyclohexyl}-5,6,7,8-tetrahydroimidazo[1,2-a]pyridine-2-carboxamide] |
| 3.16 nM | CN1CCN(Cc2ccc(C(=O)NC3CCC(n4c(=O)c5cc(F)cnc5n(C5CCSCC5)c4=O)CC3)cc2)CC1 (stereo not shown) [Example 6, N-[4-(9-fluoro-2,4-dioxo-5-tetrahydrothiopyran-4-yl-3,5,7-triazabicyclo[4.4.0]deca-6,8,10-trien-3-yl)cyclohexyl]-4-[(4-methylpiperazin-1-yl)methyl]benzamide] |
| 0.0794 nM | O=C(CN1CCN(Cc2ccccc2)CC1)NC1CCC(n2c(=O)c3cc(F)cnc3n(C3CCSCC3)c2=O)CC1 (stereo not shown) [Example 10, 2-(4-benzylpiperazin-1-yl)-N-[4-(9-fluoro-2,4-dioxo-5-tetrahydrothiopyran-4-yl-3,5,7-triazabicyclo[4.4.0]deca-6,8,10-trien-3-yl)cyclohexyl]acetamide] |
| 2 nM | O=C(CN1CCN(C(=O)Cc2ccccc2)CC1)NC1CCC(n2c(=O)c3cc(F)cnc3n(C3CCSCC3)c2=O)CC1 (stereo not shown) [Example 24, N-[4-(9-fluoro-2,4-dioxo-5-tetrahydrothiopyran-4-yl-3,5,7-triazabicyclo[4.4.0]deca-6,8,10-trien-3-yl)cyclohexyl]-2-[4-(2-phenylacetyl)piperazin-1-yl]acetamide] |
